SMILES	melting point
COc1cc2c(cc1NCc1ccccc1)ncc1c(N)nc(-c3cccnc3)cc12	251 to 258 °C
COc1ccc(S(=O)(=O)c2cccs2)c(Cl)c1Cl	190 °C
COC(=O)CCc1ccc(N2CCN(c3ccc(CN)cc3C)C2=O)cc1	> 275 °C
O=C(Nc1cccc2cc(COc3ccccc3)cnc12)c1c(Cl)cccc1Cl	157 °C
CCn1c(=O)c2c(nc(/C=C/c3cc4c(cc3Br)OCO4)n2C)n(CC)c1=O	255 to 256 °C
CC1(C)c2ccccc2N2Cc3cc(N=Nc4ccc([N+](=O)[O-])cc4)ccc3OC21c1ccccc1 (centres undefined)	200 °C
COC1(c2cc(F)cc(Sc3ccc(NC(C)=O)cc3)c2)CCN(CC(F)(F)F)C1 (centres undefined)	127 to 129 °C
CCCCCCc1c(Cl)nc(N=CN(C)C)nc1Cl	59 to 60 °C
C=CCC1(C)OC(=S)Nc2ccc(-c3cccc(Cl)c3)cc21 (centres undefined)	150 to 151 °C
CSc1nn2c(N)cc(C)nc2c1S(=O)(=O)c1ccc(Cl)cc1	> 230 °C
Oc1ccc(C2COc3cc(O)cc(O)c3C2)cc1 (centres undefined)	206 to 208 °C
CNCC(O)C1=CSC2C=CC=CC12 (centres undefined)	98 to 102 °C
COc1ccc(CNc2c(C)c(C)c3c(c2C)C(c2ccc(C)cc2)C(C)(C)O3)cc1 (centres undefined)	97 to 98 °C
CCCc1c(OCCOc2ccccc2C(=O)OC)ccc(C(C)=O)c1O	84 to 87 °C
O=S(=O)(Nc1cccnc1Cl)C(F)(F)F	120 to 122 °C
c1ccc(Nc2nsc3ccccc23)nc1	247 to 249 °C
CS(=O)(=O)NCc1ccc([N+](=O)[O-])cc1	136 to 139 °C
CCOC(=O)N1CCC(Nc2nc3cncnc3n2C2CC2)CC1	177 °C

SMILES	melting point
COc1cc2c(c(C(C)(C)C)c1)OC(=O)C2	117 to 118 °C
Cc1cnccc1Nn1ccc2ccccc21	78 to 80 °C
O=C1OCC(c2ccccc2)N1CC1C2CCC(O2)C1CO (centres undefined)	131 to 133 °C
CCC1(C(F)(F)F)C(=O)NC(=O)NC1=O	208 to 209 °C
CC1(C)CC2(NC(=O)NC2=O)c2cc(Cl)ccc2O1 (centres undefined)	281 to 283 °C
C=CCOc1ccc(CCNC(=O)C(F)(F)F)cc1S(=O)(=O)N=CN(C)C	92 to 93 °C
O=S(=O)(CCl)c1ccc(O)c(Br)c1	158 to 160 °C
CC(Cc1ccc(Br)cc1)C(=O)NC(C)(C)CO (centres undefined)	120 to 121 °C
Cc1noc(C)c1-c1cn(Cc2ccccc2)c(=O)c2cccnc12	192 to 195 °C
N#Cc1c(N2CCc3ccccc3CC2)ncn(CCO)c1=O	167 to 171 °C
COc1ccc(C(=O)N2CCC(N(C)c3ccccc3Cl)c3ccccc32)cc1OC (centres undefined)	146 to 147 °C
N#Cc1cc([N+](=O)[O-])ccc1N1CCN(Cc2ccccc2)CC1	124 °C
COc1ccc2[nH]c(SCc3ncnc(N4CCCCC4)c3C)nc2c1	94 to 96 °C
O=C(O)c1cc2c(s1)S(=O)(=O)CC2	227 to 230 °C
Cc1cc2c(NC(=S)N3Cc4sccc4CC3CO)cccc2cn1 (racemic)	145 °C
Cc1cc(-c2[nH]c3c([N+](=O)[O-])cccc3c2C)cc(C)c1O	178 to 179 °C
COC(=O)c1ccc(NS(=O)(=O)c2cc(OCC(F)(F)F)cc(OCC(F)(F)F)c2)cn1	158 to 160 °C
O=[N+]([O-])c1ccccc1-c1oc2ccc(CBr)cc2c1Br	118 °C

Results, then the molecule that gave them:

melting point	SMILES
83 to 85 °C	CCN(CC)C(C)CN1CCc2c(c(=O)oc3cc(OC)ccc23)C1 (centres undefined)
128 to 129 °C	CCCOc1nc(N)nc(-c2ccccc2)c1-c1ccc(=O)n(C(C)C)n1
170 to 172 °C	CCOC(=O)c1cc2c(C)c(-c3cccc(Cl)c3)c(=O)oc2nc1C(=O)OCC
298 °C	O=c1[nH]c2nc3ccccc3n2c(=O)n1CCc1ccccc1
172 to 174 °C	Cn1nccc1CCS(=O)Cc1ccc(OCc2coc(/C=C/c3ccc(C(F)(F)F)cc3)n2)cc1 (centres undefined)
268 to 270 °C	O=C(c1cccs1)c1cnc2[nH]ncc2c1NC1CC1
225 to 226 °C	COc1ncccc1C(=O)Nc1ccn2cc(-c3ccccc3)nc2n1
243 to 245 °C	CN(Cc1cccc2c1C(=O)N(C1CCC(=O)NC1=O)C2=O)C(=O)NC1CCCCC1 (centres undefined)
187 to 189 °C	COc1ccc(COc2ccc3[nH]c4c([N+](=O)[O-])ccc(Cl)c4c(=O)c3c2)cc1
75 to 78 °C	CC(=O)OCC1OC(c2cnc(Cl)nc2Cl)C(OC(C)=O)C1OC(C)=O (centres undefined)
316 to 319 °C	COc1ccc(-c2ccc(C#N)cn2)cc1-c1nc2cc(C#N)ccc2[nH]1
111 to 112 °C	CN1CCC(c2cccc(C(F)(F)F)c2)(C(C)(C)O)CC1
125 °C	Nc1ccc2c(c1)C(=O)CC21CCCC1
196 °C	CCn1c(=O)c2c(nc(/C=C/c3cc(OC)c(OC(=O)c4ccccc4)c(OC)c3)n2C)n(CC)c1=O
90 to 91 °C	OCCCCc1ccc(OCc2coc(/C=C/c3ccccc3)n2)cc1
142 to 143 °C	CCC(CC)N(C)c1cc(C(=O)OC)ccc1N1C(=O)CCC1(CO)CO
88 °C	O=Cc1nn(-c2cccc(C(F)(F)F)c2)c2c1CCCC2
140 to 142 °C	CC1(C)SC(c2ccc3c(c2)CCC3)NC1C(=O)O (centres undefined)
154 to 156 °C	CC#CCn1nnc2cc3c(=O)n(C(C)Cn4nccn4)nnc3cc2c1=O (centres undefined)

melting point	SMILES
144 to 145 °C	O=C(O)C1=Cc2cc(C(F)(F)F)ccc2OC1C(F)(F)F (centres undefined)
190 to 192 °C	CCOCc1nc2c(N)nc3cc(OCCCCCCNC(C)=O)ccc3c2n1CC(C)(C)NC(C)=O
166 to 167 °C	c1ccc(-c2nn3ccccc3c2-c2ccncc2)cc1
90 to 91 °C	CCOC(=O)/C(=C\Nc1ccc(OC)cc1)c1ccc(OC)cc1
237 to 238 °C	CS(=O)(=O)N[C@@H](CCCCN)C(=O)NC[C@H](CC1(C(=O)N[C@@H](Cc2ccc(O)cc2)C(=O)O)CCCC1)C(=O)O
154 to 156 °C	Clc1cc(Oc2cc(Cl)nc(-c3ccc(Cl)s3)n2)ccn1
203 to 209 °C	CC(C)(C)C(=NO)C(C)(C)CCCCCCC(C)(C)C(=NO)C(C)(C)C
80 to 82 °C	CCCCCCNc1nc(Cl)nc2c(SC)ncnc12
173 to 174 °C	NNC(=O)C=Cc1cc2ccccc2o1
104 °C	C/C=C/C(=O)N1C(=O)OC(C)(C)[C@H]1c1ccccc1
> 245 °C	N#Cc1cnc2sc(-c3ccccc3)cc2c1Nc1ccc2[nH]ccc2c1
123 to 125 °C	O=C(N1CCN(c2ccccc2)CC1)N1CCc2ccccc2CO1
68 to 69 °C	CCOC(=O)c1ccc(OCc2ccccc2)c(OCc2ccccc2)c1
140 to 142 °C	COc1ccc(S(=O)(=O)Nc2ccccc2Nc2ccccc2)cc1
97 to 98 °C	COC(=O)c1cc2ccc(OC)cc2o1
29.5 to 30 °C	C#CCCCCCCNC(=O)C(F)(F)F
92 to 95 °C	CC(=O)OC(c1cccc(Cl)c1Cl)C(Cl)(Cl)C(F)(F)F (centres undefined)
58 to 77 °C	COc1ccc(C(=O)N2CCc3cc(O)ccc3C2)cc1OC
170 °C	CCOC(=O)C1=C(C)NC(N)=C(C(=O)OCC)C1Cc1cccs1 (centres undefined)

— a melting point compilation (Tetko et al.; mined from patent text by program, amines drawn as free bases though some values may be those of a salt)
